Laboratory results published in patent US9062046B2, “Substituted imidazoquinoline derivatives as kinase inhibitors” (Piramal Enterprises Limited, priority 2011, dated 2015).

Experiments:
[1] = system: PC3 (prostate cell line); assay: Cytotoxicity assay (propidium iodide assay), PC3; assay type: cell-based; conditions: Homo sapiens, PC-3, PC3 cells, 48 h treatment
Method: (§1) The assay was designed as in the reference, Anticancer Drugs, 2002, 13, 1-8, the disclosure of which is incorporated by reference for the teaching of the assay.
(§2) Cells from cell lines A2780 (ovarian cell line) and PC3 (prostate cell line) (both from ATCC) were seeded at a density of 3000 cells/well in a white opaque 96-well plate. Following incubation at 37° C./5% CO2 for a period of 18-24 h, the cells were treated with various concentrations (stock solution was prepared in DMSO and subsequent dilutions were made in media as per ATCC guidelines) of the test compounds for a period of 48 h. At the end of treatment, the culture medium was discarded, the cells were washed with 1×PBS and 200 μl of 7 μg/ml propidium iodide was added to each well. The plates were frozen at −70° C. overnight. For analysis, the plates were warmed to RT, allowed to thaw and were read in PoleStar fluorimeter with the fluorescence setting. The percentage of viable cells in the non-treated set of wells was considered to be 100 and the percentage viability following treatment was calculated accordingly. IC50 values were calculated from graphs plotted using these percentages.

[2] = system: A2780 (ovarian cell line); assay: Cytotoxicity assay (propidium iodide assay), A2780; assay type: cell-based; conditions: Homo sapiens, A2780 cells, 48 h treatment
Method: as §1, §2

SMILES | inhibition at 1 µM [1] | inhibition at 1 µM [2] | IC50 [1] | IC50 [2]
COc1ncc(-c2ccc3ncc4c(c3c2)n(-c2ccc(C(C)(C)C#N)cc2)c(=NC#N)n4C)cc1NS(=O)(=O)c1ccc(F)cc1F [Example 135, N-(5-(2-(cyanoimino)-1-(4-(2-cyanopropan-2-yl)phenyl)-3-methyl-2,3-dihydro-1H-imidazo[4,5-c]quinolin-8-yl)-2-methoxypyridin-3-yl)-2,4-difluorobenzenesulfonamide] | ≥ 70% | ≥ 70% | – | –
Cn1c(=NC#N)n(-c2ccc(C(C)(C)C#N)nc2)c2c3cc(-c4cnc(NC(=O)OC(C)(C)C)c(C(F)(F)F)c4)ccc3ncc21 [Example 122, tert-butyl 5-(2-(cyanoimino)-1-(6-(2-cyanopropan-2-yl)pyridin-3-yl)-3-methyl-2,3-dihydro-1H-imidazo[4,5-c]quinolin-8-yl)-3-(trifluoromethyl)pyridin-2-ylcarbamate] | 30 to 70% | ≥ 70% | – | –
CC(=O)Nc1cc(C)c(-c2ccc3ncc4c(c3c2)n(-c2ccc(C(C)(C)C#N)nc2)c(=NC#N)n4C)cn1 [Example 128, N-(5-(2-(cyanoimino)-1-(6-(2-cyanopropan-2-yl)pyridin-3-yl)-3-methyl-2,3-dihydro-1H-imidazo[4,5-c]quinolin-8-yl)-4-methylpyridin-2-yl)acetamide] | < 30% | 30 to 70% | – | –
COc1ccc(-n2c(=NC#N)n(C)c3cnc4ccc(-c5ccc(SC(C)C)cc5)cc4c32)cn1 [Example 37, N-(8-(4-(isopropylthio)phenyl)-1-(6-methoxypyridin-3-yl)-3-methyl-1H-imidazo[4,5-c]quinolin-2(3H)-ylidene)cyanamide] | < 30% | 30 to 70% | – | –
COc1ccc(-n2c(=NC#N)n(C)c3cnc4ccc(-c5cnccc5F)cc4c32)cn1 [Example 39, N-(8-(4-fluoropyridin-3-yl)-1-(6-methoxypyridin-3-yl)-3-methyl-1H-imidazo[4,5-c]quinolin-2(3H)-ylidene)cyanamide] | 30 to 70% | 30 to 70% | – | –
COc1cc(OC)cc(-n2c(=NC#N)n(C)c3cnc4ccc(-c5cccnc5)cc4c32)c1 [Example 102, N-(1-(3,5-dimethoxyphenyl)-3-methyl-8-(pyridin-3-yl)-1H-imidazo[4,5-c]quinolin-2(3H)-ylidene)cyanamide] | < 30% | ≥ 70% | – | –
COc1ccc(-n2c(=NC#N)n(C)c3cnc4ccc(-c5cnc(N)c(C(F)(F)F)c5)cc4c32)c(C)n1 [Example 9, N-(8-(6-amino-5-(trifluoromethyl)pyridin-3-yl)-1-(6-methoxy-2-methylpyridin-3-yl)-3-methyl-1H-imidazo[4,5-c]quinolin-2(3H)-ylidene)cyanamide] | – | – | ≤ 0.5 µM | ≤ 0.5 µM
COc1ccc(-n2c(=NC#N)n(C)c3cnc4ccc(-c5ccc(OC)c(OC)c5)cc4c32)cn1 [Example 36, N-(8-(3,4-dimethoxyphenyl)-1-(6-methoxypyridin-3-yl)-3-methyl-1H-imidazo[4,5-c]quinolin-2(3H)-ylidene)cyanamide] | ≥ 70% | ≥ 70% | – | –
COc1ncc(-c2ccc3ncc4c(c3c2)n(-c2ccc(C(C)(C)C#N)cc2)c(=NC#N)n4C)cc1NS(C)(=O)=O [Example 127, N-(5-(2-(cyanoimino)-1-(4-(2-cyanopropan-2-yl)phenyl)-3-methyl-2,3-dihydro-1H-imidazo[4,5-c]quinolin-8-yl)-2-methoxypyridin-3-yl)methanesulfonamide] | 30 to 70% | ≥ 70% | – | –
Cn1c(=NC#N)n(-c2ccc(C(C)(C)C#N)nc2)c2c3cc(-c4ccnc(N5CCOCC5)c4Cl)ccc3ncc21 [Example 121, N-(8-(3-chloro-2-morpholinopyridin-4-yl)-1-(6-(2-cyanopropan-2-yl)pyridin-3-yl)-3-methyl-1H-imidazo[4,5-c]quinolin-2(3H)-ylidene)cyanamide] | < 30% | < 30% | – | –
CC(C)(C#N)c1ccc(-n2c(=NC#N)[nH]c3cnc4ccc(-c5cccnc5)cc4c32)cc1 [Example 85, N-(1-(4-(2-cyanopropan-2-yl)phenyl)-8-(pyridin-3-yl)-1H-imidazo[4,5-c]quinolin-2(3H)-ylidene)cyanamide] | < 30% | < 30% | – | –
Cn1c(=NC#N)n(-c2ccc(C(C)(C)C#N)nc2)c2c3cc(-c4ccc(N5CCN(C(=O)OC(C)(C)C)CC5)nc4)ccc3ncc21 [Example 72, tert-butyl 4-(5-(2-(cyanoimino)-1-(6-(2-cyanopropan-2-yl)pyridin-3-yl)-3-methyl-2,3-dihydro-1H-imidazo[4,5-c]quinolin-8-yl)pyridin-2-yl)piperazine-1-carboxylate] | < 30% | < 30% | – | –
Cn1c(=NC#N)n(-c2ccc(C(C)(C)C#N)nc2)c2c3cc(-c4cnc(NCc5ccccc5)c(C(F)(F)F)c4)ccc3ncc21 [Example 138, N-(8-(6-(benzylamino)-5-(trifluoromethyl)pyridin-3-yl)-1-(6-(2-cyanopropan-2-yl)pyridin-3-yl)-3-methyl-1H-imidazo[4,5-c]quinolin-2(3H)-ylidene)cyanamide] | – | – | ≤ 0.5 µM | ≤ 0.5 µM
Cn1c(=NC#N)n(-c2ccc(C(C)(C)C#N)nc2)c2c3cc(-c4ccc5ccccc5c4)ccc3ncc21 [Example 62, N-(1-(6-(2-cyanopropan-2-yl)pyridin-3-yl)-3-methyl-8-(naphthalen-2-yl)-1H-imidazo[4,5-c]quinolin-2(3H)-ylidene)cyanamide] | 30 to 70% | 30 to 70% | – | –
COc1ccc(-n2c(=NC#N)n(C)c3cnc4ccc(-c5ccc6cccnc6c5)cc4c32)cn1 [Example 26, N-(1-(6-methoxypyridin-3-yl)-3-methyl-8-(quinolin-7-yl)-1H-imidazo[4,5-c]quinolin-2(3H)-ylidene)cyanamide] | 30 to 70% | ≥ 70% | – | –
COc1ccc(-n2c(=NC#N)n(C)c3cnc4ccc(-c5ccncc5)cc4c32)cn1 [Example 14, N-(1-(6-methoxypyridin-3-yl)-3-methyl-8-(pyridin-4-yl)-1H-imidazo[4,5-c]quinolin-2(3H)-ylidene)cyanamide] | 30 to 70% | ≥ 70% | – | –
COc1ccc(-n2c(=NC#N)n(C)c3cnc4ccc(-c5ccc(N(C)C)nc5)cc4c32)cn1 [Example 2, N-(8-(6-(dimethylamino)pyridin-3-yl)-1-(6-methoxypyridin-3-yl)-3-methyl-1H-imidazo[4,5-c]quinolin-2(3H)-ylidene)cyanamide] | – | – | ≤ 0.5 µM | ≤ 0.5 µM
Cn1c(=NC#N)n(-c2ccc(C(C)(C)C#N)nc2)c2c3cc(-c4cncc(CNC(=O)OC(C)(C)C)c4)ccc3ncc21 [Example 71, tert-butyl (5-(2-(cyanoimino)-1-(6-(2-cyanopropan-2-yl)pyridin-3-yl)-3-methyl-2,3-dihydro-1H-imidazo[4,5-c]quinolin-8-yl)pyridin-3-yl)methylcarbamate] | < 30% | < 30% | – | –
COc1ccc(-n2c(=NC#N)n(C)c3cnc4ccc(-c5cnc(N)c(C(F)(F)F)c5)cc4c32)cn1 [Example 1, N-(8-(6-amino-5-(trifluoromethyl)pyridin-3-yl)-1-(6-methoxypyridin-3-yl)-3-methyl-1H-imidazo[4,5-c]quinolin-2(3H)-ylidene)cyanamide] | – | – | ≤ 0.5 µM | ≤ 0.5 µM
